Measured values reported in ChEMBL document CHEMBL1201862, “PubChem BioAssay data set” (2004).
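Values below derive from 48-hour exposures of cells grown in 96-well plates, with endpoints linearly interpolated between the two concentrations bracketing the appropriate inhibition level. GI50: concentration for 50% inhibition of growth.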 Calls of active or inactive are those of the source. Rule as the data show it: active = GI50 up to about 1.1 µM and inactive = higher. Residues, ends and D or L forms follow the SMILES beside them. *: point of attachment. Boc = CC(C)(C)OC(=O)*; OBn = c1ccc(CO*)cc1

What was measured:
Test in all cases: NCI anticancer screen, dose series, 48 h
[1] = tested on: HOP-62
[2] = tested on: SW-620
[3] = tested on: OVCAR-8
[4] = tested on: NCI-H226
[5] = tested on: Hs-578T
[6] = tested on: SF-295
[7] = tested on: HCT-15
[8] = tested on: MDA-MB-435
[9] = tested on: PC-3
[10] = tested on: COLO 205
[11] = tested on: DU-145
[12] = tested on: SK-MEL-28
[13] = tested on: HCT-116
[14] = tested on: OVCAR-5
[15] = tested on: RXF 393
[16] = tested on: RPMI-8226
[17] = tested on: CCRF-CEM
[18] = tested on: SK-MEL-2
[19] = tested on: SR
[20] = tested on: OVCAR-4

| Structure (SMILES) | GI50 [1] | GI50 [2] | GI50 [3] | GI50 [4] | GI50 [5] | GI50 [6] | GI50 [7] [µM] | GI50 [8] | GI50 [9] | GI50 [10] | GI50 [11] | GI50 [12] | GI50 [13] | GI50 [14] | GI50 [15] | GI50 [16] | GI50 [17] | GI50 [18] | GI50 [19] | GI50 [20] |
| --- | --- | --- | --- | --- | --- | --- | --- | --- | --- | --- | --- | --- | --- | --- | --- | --- | --- | --- | --- | --- |
| COc1cc2c(c(OC)c1OC)C(=O)[C@H](O)[C@H]2NC(N)=O | > 100 µM (inactive) | > 100 µM (inactive) | > 100 µM (inactive) | > 100 µM (inactive) | 60 µM (inactive) | > 100 µM (inactive) | 27.7 | > 100 µM (inactive) | > 100 µM (inactive) | 50.7 µM (inactive) | > 100 µM (inactive) | > 100 µM (inactive) | 79.4 µM (inactive) | 76.7 µM (inactive) | 47.8 µM (inactive) | > 100 µM (inactive) | > 100 µM (inactive) |  |  |  |
| CC1=CC[C@@H]2[C@@H](CC[C@@]2(C)O)C(C)(C)[C@H]1CC[C@@H]1[C@@]2(C)CC[C@@H](O)C(C)(C)O[C@@H]2CC[C@]1(C)O | 23.2 µM (inactive) | 31.8 µM (inactive) |  |  |  | 33.1 µM (inactive) | 18.2 | 22.3 µM (inactive) | 40.6 µM (inactive) | 19.4 µM (inactive) | 36.3 µM (inactive) | 16.8 µM (inactive) | 14 µM (inactive) | 29.9 µM (inactive) |  | 18.9 µM (inactive) | > 10 µM (inactive) | 34 µM (inactive) | 14.9 µM (inactive) | 37.2 µM (inactive) |
| CCOC(=O)c1sc2c(c1OC(=O)c1cc(OC)c(OC)c(OC)c1)c(=O)n(-c1ccccc1)c(=S)n2-c1ccccc1 | > 100 µM (inactive) | > 100 µM (inactive) | 74.8 µM (inactive) | > 100 µM (inactive) | 51.2 µM (inactive) | > 100 µM (inactive) | 47.3 | 79.1 µM (inactive) | 63.5 µM (inactive) | > 100 µM (inactive) | > 100 µM (inactive) | > 100 µM (inactive) | > 100 µM (inactive) | > 100 µM (inactive) | > 100 µM (inactive) | 93.1 µM (inactive) | 17.5 µM (inactive) |  |  | 70.8 µM (inactive) |
| CCOC(=O)C(NC(=O)CC)(Nc1ccc(F)cc1F)C(F)(F)F (stereo unspecified) |  | 85.7 µM (inactive) | > 100 µM (inactive) |  | 18.2 µM (inactive) |  | > 100 | 40.7 µM (inactive) | > 100 µM (inactive) | > 100 µM (inactive) |  | > 100 µM (inactive) | > 100 µM (inactive) | > 100 µM (inactive) | > 100 µM (inactive) | > 100 µM (inactive) | > 100 µM (inactive) | > 100 µM (inactive) | > 100 µM (inactive) |  |
| CCCCOC(=O)C(=O)C(CCC(=O)c1ccc(C)cc1)C(=O)C=C(C)C (stereo unspecified) | > 100 µM (inactive) | > 100 µM (inactive) | > 100 µM (inactive) | > 100 µM (inactive) | > 100 µM (inactive) | > 100 µM (inactive) | > 100 | > 100 µM (inactive) | > 100 µM (inactive) |  |  | > 100 µM (inactive) | > 100 µM (inactive) | > 100 µM (inactive) | > 100 µM (inactive) | > 100 µM (inactive) | > 100 µM (inactive) | > 100 µM (inactive) | > 100 µM (inactive) | > 100 µM (inactive) |
| CNC(=S)NN=C1NCCCN1 | > 100 µM (inactive) | > 100 µM (inactive) | > 100 µM (inactive) | > 100 µM (inactive) | > 100 µM (inactive) | > 100 µM (inactive) | > 100 | > 100 µM (inactive) | > 100 µM (inactive) | > 100 µM (inactive) |  | > 100 µM (inactive) | > 100 µM (inactive) | > 100 µM (inactive) | > 100 µM (inactive) | > 100 µM (inactive) | > 100 µM (inactive) | > 100 µM (inactive) | > 100 µM (inactive) | > 100 µM (inactive) |
| CSC(=S)NN=C1CCCCC1 | 47.3 µM (inactive) | 48.2 µM (inactive) | 8.93 µM (inactive) | 13.9 µM (inactive) | 59 µM (inactive) | 28.4 µM (inactive) | 29.9 | 18.7 µM (inactive) | 30.8 µM (inactive) | 47.1 µM (inactive) | 27.4 µM (inactive) | 37.8 µM (inactive) | 27.2 µM (inactive) |  | > 100 µM (inactive) | 0.165 µM (active) | 26.1 µM (inactive) | 52.6 µM (inactive) |  | 34.3 µM (inactive) |
| CN(C)/C=C/c1ccncc1 | > 100 µM (inactive) | > 100 µM (inactive) | > 100 µM (inactive) | > 100 µM (inactive) |  | > 100 µM (inactive) | > 100 | > 100 µM (inactive) | > 100 µM (inactive) | > 100 µM (inactive) | > 100 µM (inactive) | > 100 µM (inactive) | > 100 µM (inactive) | > 100 µM (inactive) | > 100 µM (inactive) | > 100 µM (inactive) | 48.6 µM (inactive) | > 100 µM (inactive) | > 100 µM (inactive) | > 100 µM (inactive) |
| COc1ccc(C(=O)C2=NON3OC23C(=O)c2ccc(OC)cc2)cc1 (stereo unspecified) | > 100 µM (inactive) | 3.31 µM (inactive) | 8.77 µM (inactive) | 16.8 µM (inactive) |  | 19.2 µM (inactive) | 15.5 |  |  | 7.62 µM (inactive) |  | 17.9 µM (inactive) | 7.26 µM (inactive) | 20.7 µM (inactive) | 4.09 µM (inactive) | 3.37 µM (inactive) | 2.34 µM (inactive) | 19.5 µM (inactive) | 2.56 µM (inactive) | 5.74 µM (inactive) |
| Cc1ccc(-c2nnc(CCCCCCCCc3nnc(-c4ccc(C)cc4O)n3N)n2N)c(O)c1 |  | > 100 µM (inactive) | > 100 µM (inactive) |  | 44.9 µM (inactive) | 77.1 µM (inactive) | > 100 | > 100 µM (inactive) |  | > 100 µM (inactive) | > 100 µM (inactive) | > 100 µM (inactive) | > 100 µM (inactive) | > 100 µM (inactive) |  | > 100 µM (inactive) | > 10 µM (inactive) | > 100 µM (inactive) | > 100 µM (inactive) | > 100 µM (inactive) |
| CC(C)=Nn1cnc(C(=N)C#N)c1N | > 100 µM (inactive) | > 100 µM (inactive) | > 100 µM (inactive) | > 100 µM (inactive) |  | 29.4 µM (inactive) | > 100 |  | > 100 µM (inactive) | > 100 µM (inactive) | > 100 µM (inactive) | > 100 µM (inactive) | > 100 µM (inactive) | > 100 µM (inactive) | > 100 µM (inactive) | > 100 µM (inactive) | > 100 µM (inactive) | > 100 µM (inactive) | > 100 µM (inactive) | > 100 µM (inactive) |
| CC(=O)c1sc(Nc2ccc(Cl)c(Cl)c2)nc1C | 69.2 µM (inactive) | > 100 µM (inactive) | > 100 µM (inactive) | 78 µM (inactive) |  | 35.1 µM (inactive) | 93.8 | > 100 µM (inactive) |  | > 100 µM (inactive) | > 100 µM (inactive) | > 100 µM (inactive) | > 100 µM (inactive) | > 100 µM (inactive) | 55.3 µM (inactive) | 64.4 µM (inactive) |  |  | 60.3 µM (inactive) | > 100 µM (inactive) |
| CCOC(=O)C1=C(C)NC(=O)NC1c1ccc(N(CCCl)CCCl)cc1Cl (stereo unspecified) | 15.2 µM (inactive) | 17.9 µM (inactive) | 12.9 µM (inactive) | 15.2 µM (inactive) | 17.1 µM (inactive) | 15.8 µM (inactive) | 17.1 | 19 µM (inactive) | 15.2 µM (inactive) | 18.6 µM (inactive) | 18.2 µM (inactive) | 17.6 µM (inactive) | 14.3 µM (inactive) | 17.9 µM (inactive) | 17.1 µM (inactive) |  |  | 16.3 µM (inactive) |  | 17.2 µM (inactive) |
| CC[C@@]1(O)C(=O)OCc2c1cc1n(c2=O)Cc2cc3c(OC)cccc3nc2-1 |  | 0.196 µM (active) |  | 0.267 µM (active) | 12.8 µM (inactive) | < 0.1 µM (active) | 0.805 |  |  | 1.21 µM (inactive) |  |  |  | 0.417 µM (active) | 0.308 µM (active) | 0.0158 µM (active) | < 0.01 µM (active) | 0.834 µM (active) | 0.1 µM (active) | 1.06 µM (active) |
| CC(C)C(NC(=O)C(Cc1ccccc1)NC(=O)OC(C)(C)C)C(=O)NCC(=O)OCc1ccccc1 (stereo not drawn) (Boc-Phe-Val-Gly-OBn; configuration not given here) | 19.2 µM (inactive) | 14.3 µM (inactive) | 19.5 µM (inactive) |  |  | 18.6 µM (inactive) | 12.9 | 6.92 µM (inactive) | 15.7 µM (inactive) | 20.6 µM (inactive) | 14.3 µM (inactive) | 16.3 µM (inactive) | 23.7 µM (inactive) | 15.1 µM (inactive) |  | 16.5 µM (inactive) | 20 µM (inactive) | 17.8 µM (inactive) |  | 3.87 µM (inactive) |
| COc1cc(-c2cc(=O)c3c(OC)c(OC)c(OC)c(OC)c3o2)cc(OC)c1OC [HEPATAMETHOXYFLAVONE] | 41.9 µM (inactive) | 55 µM (inactive) | 24.5 µM (inactive) | 44.8 µM (inactive) | 29 µM (inactive) | 28.1 µM (inactive) | 33.4 | 29 µM (inactive) |  | 18.7 µM (inactive) | 45.5 µM (inactive) | 53.2 µM (inactive) | 44.8 µM (inactive) | > 100 µM (inactive) | 28.1 µM (inactive) | 26.1 µM (inactive) | 30.5 µM (inactive) | 27.9 µM (inactive) | > 100 µM (inactive) | 32.4 µM (inactive) |
